SMILES strings stand for the structures.

Holding throughout (assay type): in vivo
The subject of test [1] is Echinochloa crusgalli var. zelayensis. Briefly: Soil sealing treatment, pot culture, fresh weight inhibition (Tables 49, 50). As for the experimental part: (§1) A method for investigating absolute number was employed, wherein whole seedlings of survival weeds were cut off with a blade along the soil surface, and the fresh weight of the weeds was weighed with an analytical balance. For dead weeds, the fresh weight thereof was zero.
(§2) Theoretical fresh weight inhibition rate of a combination of two active ingredients in each group was calculated by the Gowing method (E0=X+Y−X*Y/100), and then compared with an actually measured inhibition rate (E), thereby effect of the combination (hereafter referred to as combined effect) on weeds was evaluated: the value of E-E0, which was greater than 10%, corresponded to a synergistic effect, the value of E-E0, which was less than −10%, corresponded to an antagonistic effect, and the value of E-E0, which was from −10% to 10%, corresponded to an additional effect. […] Wherein, in the formula, X represented the fresh weight inhibition rate of the active ingredient A in a dosage of P, and Y represented the fresh weight inhibition rate of the active ingredient B in a dosage of Q.
(§3) Echinochloa crusgalli var zelayensis were collected in Huai'an of Jiangsu Province; Echinochloa caudate were collected in Pingluo of Ningxia Province; Echinochloa oryzoides were collected in Qiqiha'er of Heilongjiang Province.
(§4) The culture was carried out in a controllable sunlight greenhouse at 20 to 30° C., in natural light, and relative humidity of 57% to 72%. […] The test soil was placed quantitatively to ¾ of the pots and then watered from the bottom of the pots to completely wet the soil to saturation. The pretreated test weed seeds were uniformly sowed on the surface, then covered with 0.5-2 cm soil according to the seed size, and ready-for use 24 hours after sowing.
(§5) The technical materials were all dissolved in acetone, and diluted with an aqueous solution containing 0.1% emulsifier T-80. The dilution is performed as required.
(§6) A ratio of A to the active ingredient B and amounts thereof in each group depends on the characteristics and toxicity of the two agents, as well as the main application purpose of a corresponding formulation. Based on the pre-tests in this study, the dosage of A and the active ingredient B applied alone and in combination were shown in the tables. Water containing the solvent and emulsifier same with the above groups but free of the agents was used as a blank control.
(§7) 3 pots with 30 weed seeds per pot were treated in one treatment with 4 replications per treatment.
(§8) The pots which were sowed and mulched were evenly placed on a platform with an area of 0.5 m^2, and a solution of agents was sprayed on soil surface thereof by the 3WP-2000-type walking spray tower at a dosage of […] and at a spray pressure of 0.3 MPa. After all the solution was sprayed, the valve was closed. After 30 seconds, the door of the spray tower was opened, and the nutritional bowl was taken out. Then the valve was opened, and the spray tube was cleaned by spraying 50 ml of water.
(§9) This section was same as the section 4) in the post-emergence treatment by performing foliage spray, and was not repeated herein.

A further test deals with Echinochloa caudate. Description: Soil sealing treatment, pot culture, fresh weight inhibition (Tables 99, 100). How it is done: as §1, §2, §3, §4, §5, §6, §7, §8, §9
Test [2] deals with Echinochloa oryzoides. Description: Soil sealing treatment, pot culture, fresh weight inhibition (Tables 149, 150). As for the experimental part:
as §1, §2, §3, §4, §5, §6, §7, §8, §9

For test [3], the system named is Echinochloa oryzoides. Briefly: Post-emergence foliage spray, pot culture, fresh weight inhibition (Tables 1-48, 51-98, 101-148; 24 days). In a few lines:
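Pot-grown weeds were thinned to 15 per pot (45 per treatment) and sprayed on foliage at the 5–6-leaf stage for grasses or the 6–7-leaf stage for broadleaves. Agents were dissolved in acetone with 0.1% Tween-80 and applied at 450 kg/ha spray volume and 0.3 MPa. Plants were then kept in a greenhouse. Above-ground fresh weight of survivors, with dead plants counted as zero, gave inhibition versus a solvent/emulsifier blank.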

Another test concerns Alopecurus japonicus. Briefly: Post-emergence foliage spray, pot culture, fresh weight inhibition (Tables 151-206; 20 days). The note with it: 20 days. Summed up: (§10)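 Field-collected weeds grown in pots in a greenhouse (20-30° C., natural light, 57-72% RH), 15 per pot, 3 pots × 4 replicates. Single foliar spray at 4-5 leaves (grasses) or 5-6 leaves (broadleaf) with acetone/0.1% Tween-80 dilutions at 450 kg/ha, 0.3 MPa. Above-ground fresh weight inhibition versus solvent blank at 20 days.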

The subject of another test is Digitaria sanguinalis. The description is as above. The note with it: 20 days. Summed up: as §10
The subject of another test is Eleusine indica. Described as above. The following applies: 20 days. In a few lines: as §10
The subject of a further test is Sinapis arvensis. The description is as above. The following applies: 20 days. In a few lines: as §10
In a further test the test system is Amaranthus retroflexus. The test is described as above. The note with it: 20 days. Summed up:
(§11)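 Pre-germinated seeds (25° C soak 6 h, 28° C dark) grown in pots, thinned to 15 per pot; foliage-sprayed at 4~5-leaf (grasses) or 5~6-leaf (broadleaf) stage, 450 kg/ha spray volume, 0.3 MPa. Agents in acetone diluted with 0.1% Tween-80 water; solvent blank control. Above-ground fresh weight weighed, dead weeds scored zero.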

A further test concerns Capsella bursa-pastoris. The description is as above. The note with it: 20 days. In a few lines:
as §11

The subject of the next test is Ammannia arenaria. Briefly: Post-emergence foliage spray, pot culture, fresh weight inhibition (Tables 1-48, 51-98, 101-148; 24 days). The note with it: Table 103. In a few lines: (§12)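 Greenhouse pot plants (20–30 °C, natural light, 57–72% RH) were sprayed once on foliage at 450 kg/ha and 0.3 MPa, at the 5–6-leaf (grass) or 6–7-leaf (broadleaf) stage. Compounds were in acetone diluted with 0.1% Tween-80 water. Surviving shoots were weighed at 24 days; dead plants counted as zero.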

In another test the test system is Eclipta prostrate. The test is described as above. The note with it: 24 days. In a few lines: as §12
The subject of a further test is Ludwigia prostrate. The description is as above. In a few lines: as §12

Consider `CC(C)Oc1cc(-n2nc(C(C)(C)C)oc2=O)c(Cl)cc1Cl` [oxadiazon], for which the “Control effect (%) of B applied alone in corresponding dose” value (“Control effect (%) of B applied alone” below) in [1] (oxadiazon 37.5 g a.i./ha) amounted to 4.2%; in test [1] (oxadiazon 75 g a.i./ha) it was 25.4%; in [1] (oxadiazon 150 g a.i./ha), 41.5%; in test [1] (oxadiazon 300 g a.i./ha) it was 64.2%; in the test on Echinochloa caudate (Table 99, 37.5 g a.i./ha), 6.0%; in the test with Echinochloa caudate (Table 99, 75 g a.i./ha), 22.1%. Further, the “Control effect (%) of B applied alone” value in the test on Echinochloa caudate (Table 99, 150 g a.i./ha) was 39.5%; in the test with Echinochloa caudate (Table 99, 300 g a.i./ha) it was 63.0%; in the test with Echinochloa oryzoides [2] (B 37.5 g a.i./ha), 5.1%; in the test on Echinochloa oryzoides [2] (B 75 g a.i./ha), 10.3%; with Echinochloa oryzoides [2] (B 150 g a.i./ha) it was 39.7%; in the test on Echinochloa oryzoides [2] (B 300 g a.i./ha) it was 50.8%.
Consider `C[C@@H](Oc1nc(F)c(Cl)c(N)c1Cl)C(=O)[O-].[K+]` [Compound A4, A1 potassium salt], for which the “Control effect (%) of A applied alone in corresponding dose” value (“Control effect (%) of A applied alone” below) in the test with Echinochloa oryzoides [3] (A 75 g a.i./ha) is 52.6%; in the test with Echinochloa oryzoides [3] (A 150 g a.i./ha), 74.7%; in the test with Echinochloa oryzoides [3] (Table 101, 75 g a.i./ha) it was 52.6%; in the test on Echinochloa oryzoides [3] (Table 101, 150 g a.i./ha) it was 74.7%; in the test with Echinochloa oryzoides [3] (Table 102, 75 g a.i./ha), 52.6%; with Echinochloa oryzoides [3] (Table 102, 150 g a.i./ha), 74.7%. The “Control effect (%) of A applied alone” value amounted to 52.6% in the test on Echinochloa oryzoides [3] (Table 104, 75 g a.i./ha); 74.7% with Echinochloa oryzoides [3] (Table 104, 150 g a.i./ha); 52.6% in the test with Echinochloa oryzoides [3] (Table 106, 75 g a.i./ha); 74.7% in the test on Echinochloa oryzoides [3] (Table 106, 150 g a.i./ha); 52.6% with Echinochloa oryzoides [3] (Table 107, 75 g a.i./ha); 74.7% with Echinochloa oryzoides [3] (Table 107, 150 g a.i./ha). In addition, the “Control effect (%) of A applied alone” value stood at 52.6% with Echinochloa oryzoides [3] (Table 108, 75 g a.i./ha); 74.7% with Echinochloa oryzoides [3] (Table 108, 150 g a.i./ha); 52.6% with Echinochloa oryzoides [3] (Table 109, 75 g a.i./ha); 74.7% in the test on Echinochloa oryzoides [3] (Table 109, 150 g a.i./ha); 52.6% in the test with Echinochloa oryzoides [3] (Table 110, 75 g a.i./ha); 74.7% with Echinochloa oryzoides [3] (Table 110, 150 g a.i./ha). In addition, the “Control effect (%) of A applied alone” value with Echinochloa oryzoides [2] (A 75 g a.i./ha) is reported as 18.9%; with Echinochloa oryzoides [2] (A 150 g a.i./ha) it was 42.5%; with Alopecurus japonicus (A 75 g a.i./ha), 24.9%; in the test on Alopecurus japonicus (A 150 g a.i./ha) it was 47.2%; in the test on Digitaria sanguinalis (A 75 g a.i./ha), 22.2%; in the test with Digitaria sanguinalis (A 150 g a.i./ha), 56.4%. Also, the “Control effect (%) of A applied alone” value with Eleusine indica (A 75 g a.i./ha) was 38.5%; in the test with Eleusine indica (A 150 g a.i./ha), 69.2%; with Sinapis arvensis (A 75 g a.i./ha), 41.1%; in the test on Sinapis arvensis (A 150 g a.i./ha), 65.9%; in the test with Amaranthus retroflexus (A 75 g a.i./ha) it was 26.7%; in the test on Amaranthus retroflexus (A 150 g a.i./ha), 57.2%. Besides, the “Control effect (%) of A applied alone” value is reported as 44.2% with Capsella bursa-pastoris (A 75 g a.i./ha) and 67.2% in the test with Capsella bursa-pastoris (A 150 g a.i./ha).
On to `C#CCOc1cc(-n2nc(C(C)(C)C)oc2=O)c(Cl)cc1Cl` [oxadiargyl], for which the “Control effect (%) of B applied alone” value in test [1] (oxadiargyl 7.5 g a.i./ha) came out at 1.6%; in test [1] (oxadiargyl 15 g a.i./ha), 10.4%; in test [1] (oxadiargyl 30 g a.i./ha), 38.8%; in [1] (oxadiargyl 60 g a.i./ha) it was 63.5%; in the test with Echinochloa caudate (Table 100, 7.5 g a.i./ha), 1.7%; in the test with Echinochloa caudate (Table 100, 15 g a.i./ha) it was 10.8%. The “Control effect (%) of B applied alone” value worked out at 37.2% in the test with Echinochloa caudate (Table 100, 30 g a.i./ha); 62.5% in the test with Echinochloa caudate (Table 100, 60 g a.i./ha); 2.6% in the test with Echinochloa oryzoides [2] (B 7.5 g a.i./ha); 12.7% with Echinochloa oryzoides [2] (B 15 g a.i./ha); 41.6% in the test on Echinochloa oryzoides [2] (B 30 g a.i./ha); 63.3% with Echinochloa oryzoides [2] (B 60 g a.i./ha).
Consider `CCOC(=O)c1cnn(C)c1S(=O)(=O)NC(=O)Nc1nc(OC)cc(OC)n1` [pyrazosulfuron-ethyl], for which the “Control effect (%) of B applied alone” value in the test with Ammannia arenaria (1.875 g a.i./ha) was determined as 16.3%; in the test with Ammannia arenaria (3.75 g a.i./ha), 26.1%; in the test on Ammannia arenaria (7.5 g a.i./ha) it was 52.8%; in the test with Ammannia arenaria (15 g a.i./ha), 77.2%; with Eclipta prostrate (B 1.875 g a.i/ha), 9.5%; in the test with Eclipta prostrate (B 3.75 g a.i/ha) it was 19.9%. Further, the “Control effect (%) of B applied alone” value in the test with Eclipta prostrate (B 7.5 g a.i/ha) is given as 51.0%; in the test with Eclipta prostrate (B 15 g a.i/ha) it was 76.1%; in the test on Ludwigia prostrate (pyrazosulfuron-ethyl 1.875 g a.i./ha), 7.6%; in the test with Ludwigia prostrate (pyrazosulfuron-ethyl 3.75 g a.i./ha) it was 13.0%; in the test with Ludwigia prostrate (pyrazosulfuron-ethyl 7.5 g a.i./ha), 52.2%; with Ludwigia prostrate (pyrazosulfuron-ethyl 15 g a.i./ha), 75.3%.

For the origin of these results see US20220264878A1, “HERBICIDAL COMPOSITION CONTAINING R-TYPE PYRIDYLOXY CARBOXYLIC ACID DERIVATIVE AND USE THEREOF” (Qingdao Kingagroot Chemical Compound Co., Ltd., priority 2019, published 2022).
